Laboratory results from patent US7955808B2, “Bitter taste receptors” (Deutsches Institut für Ernährungsorschung, Stiftung des …, priority 2002, dated 2011).

How the values were obtained:
[1] = biological target: hTAS2R44 (Homo sapiens, UniProt P59538, L162M)
Description: (§1) These cells stably express a chimeric G protein constructed from human Gα16 and rat gustducin. Finally, we seeded the transfected cells at a density of 3×10^3 cells per well into 96-well black-wall, clear-bottom microtiter plates (Greiner).
(§2) Co-transfection of TAS2Rs with gustducin and phospholipase-Cβ2 into HEK-293 cells. Alternatively, we transfected simultaneously plasmid DNAs encoding one of the TAS2Rs, phospholipase-Cβ2 and α-gustducin into HEK-293 cells using the lipofectamine method. […] Thereafter, the transfected cells were seeded at a density of 3×10^3 cells per well into 96-well black-wall, clear-bottom microtiter plates (Greiner).
(§3) Thereafter, cells were gently washed in HBS by an automated plate washer (Denley Cellwash, Labsystenms) and transferred to the FLIPR (Molecular Devices). The FLIPR integrates an argon laser excitation source, a 96-well pipettor, and a detection system utilizing a Charged Coupled Device imaging camera. […] Fluorescence data were collected 1 min before and 10 min after stimulation. Data were collected every 6 s before and every 1 s after agonist stimulation. 50 μl of 3× concentrated agonists were delivered within 2 by the integrated 96-well pipettor to the wells containing 100 μl HBS. Agonist responses were quantified using the amplitudes of the fluorescence peaks. We averaged the responses of five wells containing cells expressing the same receptor and that received the same stimulus. Calcium traces were determined in triplicate of mock-transfected cells stimulated with the same concentration of tastant.

[2] = biological target: hTAS2R43 (Homo sapiens, UniProt P59537, H212R/W35S)
Chain of hTAS2R43 (P59537 whole entry W35S/H212R): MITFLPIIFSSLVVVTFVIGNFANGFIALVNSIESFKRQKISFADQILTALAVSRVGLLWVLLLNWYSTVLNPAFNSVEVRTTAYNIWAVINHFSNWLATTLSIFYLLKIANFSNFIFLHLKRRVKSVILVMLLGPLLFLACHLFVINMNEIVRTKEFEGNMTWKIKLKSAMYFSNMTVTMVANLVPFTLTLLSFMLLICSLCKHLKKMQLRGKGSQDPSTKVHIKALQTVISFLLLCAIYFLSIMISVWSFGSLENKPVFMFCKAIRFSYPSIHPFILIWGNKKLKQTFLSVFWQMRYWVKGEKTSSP
Description: as §1, §2, §3

[3] = biological target: T1, hTAS2R48 (Homo sapiens, UniProt P59542); test: FLIPR assay, heterologous expression of hTAS2R48; type: cell-based
T1 construct: gene-specific primers that span the complete coding region of the individual hTAS2R genes; first 45 amino acids of rat somatostatin type 3 receptor (cell surface-targeting signal) (N); expressed in transfected cells; host or cells: HEK-293T-Gα16gustducin44 cells (alternatively HEK-293 co-transfected with phospholipase-Cβ2 and α-gustducin)
T1 sequence (P59542 1-299): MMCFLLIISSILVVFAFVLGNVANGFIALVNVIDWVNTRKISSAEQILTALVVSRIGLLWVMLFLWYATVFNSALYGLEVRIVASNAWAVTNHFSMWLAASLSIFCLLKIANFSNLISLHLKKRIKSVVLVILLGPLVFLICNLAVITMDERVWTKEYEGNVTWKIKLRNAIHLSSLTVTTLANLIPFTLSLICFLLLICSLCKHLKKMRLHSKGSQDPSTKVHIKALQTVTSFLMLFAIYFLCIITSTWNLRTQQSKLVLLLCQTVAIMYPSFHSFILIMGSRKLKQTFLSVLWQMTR
Description: (§4) Transient transfection of TAS2Rs into HEK-293T-Gα16gustducin44 cells.

[4] = biological target: T2, hTAS2R10 (Homo sapiens, UniProt Q9NYW0, T156M); test: FLIPR assay, heterologous expression of hTAS2R10; type: cell-based; conditions: hTAS2R10
T2 construct: gene-specific primers that span the complete coding region of the individual hTAS2R genes; first 45 amino acids of rat somatostatin type 3 receptor (cell surface-targeting signal) (N); expressed in transfected cells; host or cells: HEK-293T-Gα16gustducin44 cells (alternatively HEK-293 co-transfected with phospholipase-Cβ2 and α-gustducin)
T2 sequence (Q9NYW0 1-307 T156M): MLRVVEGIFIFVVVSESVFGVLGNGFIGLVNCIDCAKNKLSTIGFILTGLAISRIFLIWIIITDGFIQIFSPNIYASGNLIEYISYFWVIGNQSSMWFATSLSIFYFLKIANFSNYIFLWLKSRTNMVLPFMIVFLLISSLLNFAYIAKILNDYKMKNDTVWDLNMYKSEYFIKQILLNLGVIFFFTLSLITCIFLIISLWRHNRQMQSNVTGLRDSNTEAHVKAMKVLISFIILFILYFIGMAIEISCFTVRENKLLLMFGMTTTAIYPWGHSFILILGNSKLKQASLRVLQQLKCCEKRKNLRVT
Description: as §4

[5] = biological target: T3, hTAS2R45 (Homo sapiens, UniProt P59539); test: FLIPR assay, heterologous expression of hTAS2R45; type: cell-based
T3 construct: gene-specific primers that span the complete coding region of the individual hTAS2R genes; first 45 amino acids of rat somatostatin type 3 receptor (cell surface-targeting signal) (N); expressed in transfected cells; host or cells: HEK-293T-Gα16gustducin44 cells (alternatively HEK-293 co-transfected with phospholipase-Cβ2 and α-gustducin)
T3 sequence (P59539 1-299): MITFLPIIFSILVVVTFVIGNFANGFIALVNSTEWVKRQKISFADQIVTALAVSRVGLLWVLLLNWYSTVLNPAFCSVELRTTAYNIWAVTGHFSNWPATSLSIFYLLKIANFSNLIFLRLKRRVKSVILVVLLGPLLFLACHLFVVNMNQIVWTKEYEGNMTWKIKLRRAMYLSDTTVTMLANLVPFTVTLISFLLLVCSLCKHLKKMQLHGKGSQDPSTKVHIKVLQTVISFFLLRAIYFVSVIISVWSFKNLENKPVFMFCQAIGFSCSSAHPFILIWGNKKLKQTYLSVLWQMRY
Description: as §4

[6] = biological target: T4, hTAS2R46 (Homo sapiens, UniProt P59540); test: FLIPR assay, heterologous expression of hTAS2R46; type: cell-based
T4 construct: gene-specific primers that span the complete coding region of the individual hTAS2R genes; first 45 amino acids of rat somatostatin type 3 receptor (cell surface-targeting signal) (N); expressed in transfected cells; host or cells: HEK-293T-Gα16gustducin44 cells (alternatively HEK-293 co-transfected with phospholipase-Cβ2 and α-gustducin)
T4 sequence (P59540 with tags, fused parts or gaps limits assumed): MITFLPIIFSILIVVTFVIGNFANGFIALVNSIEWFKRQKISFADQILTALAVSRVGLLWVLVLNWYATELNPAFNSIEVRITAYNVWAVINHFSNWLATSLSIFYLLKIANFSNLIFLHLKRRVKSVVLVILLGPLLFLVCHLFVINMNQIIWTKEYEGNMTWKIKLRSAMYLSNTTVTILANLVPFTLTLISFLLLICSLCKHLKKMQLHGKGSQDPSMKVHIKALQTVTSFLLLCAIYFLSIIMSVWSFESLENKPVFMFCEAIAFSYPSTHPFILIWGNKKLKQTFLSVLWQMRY
Description: as §4

Chain of hTAS2R44 (P59538 whole entry L162M): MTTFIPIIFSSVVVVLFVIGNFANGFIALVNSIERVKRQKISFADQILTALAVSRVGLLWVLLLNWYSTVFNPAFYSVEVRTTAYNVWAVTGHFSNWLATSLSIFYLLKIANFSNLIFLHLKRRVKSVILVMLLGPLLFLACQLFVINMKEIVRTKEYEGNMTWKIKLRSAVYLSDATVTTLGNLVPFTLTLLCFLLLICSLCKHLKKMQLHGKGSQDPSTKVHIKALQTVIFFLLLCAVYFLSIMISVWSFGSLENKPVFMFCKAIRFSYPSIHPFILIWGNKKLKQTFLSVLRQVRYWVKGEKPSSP

**Q.** For `CC1=CC(=O)NS(=O)(=O)O1` [Acesulfame K], which “Approx. Threshold” value [1] is on record?
**A.** The value was 0.5 mM.

**Q.** What about the “receptor activation (in words)” value [1] of the same molecule?
**A.** Its value is “activated”.

**Q.** And the “Approx. Threshold” value [2]?
**A.** Its value is “No response up to 10 mM”.

**Q.** How did the “Approx. Threshold” value [3] turn out when `CC1=C[C@@H]2[C@@H]3C4C(=C(C)[C@@H]3[C@@]13[C@@H]2[C@@](C)(O)CC[C@H]1[C@H](C)C(=O)O[C@@H]13)[C@H]1OC(=O)[C@@H](C)[C@@H]1CC[C@]4(C)O` (some centres unmarked) [Absinthine] was run?
**A.** The value was 0.03 mM.

**Q.** And the “receptor activation (in words)” value [3]?
**A.** The value was “activated”.

**Q.** And the Approx. Threshold [4]?
**A.** The Approx. Threshold was 0.01 mM.

**Q.** What about the “receptor activation (in words)” value [4] of the same molecule?
**A.** The value was “activated”.

**Q.** What about the “Approx. Threshold” value [5] of the same molecule?
**A.** Its value is 0.003 mM.

**Q.** And the “receptor activation (in words)” value [5]?
**A.** Its value is “activated”.

**Q.** And the “Approx. Threshold” value [6]?
**A.** The value was 0.001 mM.

**Q.** What about the “receptor activation (in words)” value [6] of the same molecule?
**A.** The value was “activated”.
